Data published in patent publication US20130096067A1, “DROSOPHILA TUMOR STEM CELL MODEL AND USES THEREOF” (priority 2011, published 2013).
Counter-ions that a name gives are not always drawn. Like-named read-outs stand apart in the source and are kept apart here. Peptide text beside a SMILES is read from it. * marks the point of attachment. Cbz = O=C(OCc1ccccc1)*

Test system: Raf-1^gof intestinal tumors
Details: for Log2 (fold) of luciferase activity relative to DMSO controls / Fold (luciferase activity relative to DMSO controls): ICCB compounds fed in vials to flies with one-day old Raf-1^gof tumors
[1] = screen of 480 ICCB compounds in vials, compounds fed to flies with one-day old Raf-1^gof tumors, assessed three days later, esg-Gal4 luciferase
[2] = screen of 480 ICCB compounds in vials, compounds fed to flies with one-day old Raf-1^gof tumors, assessed three days later, esg-Gal4 luciferase, averaged from multiple wells
[3] = assessed three days later, averaged from multiple wells
Wherever Fold (luciferase activity relative to DMSO controls) is given: test concentration or dose not given here.
Wherever Fold (luciferase activity, fold difference relative to DMSO controls) is given: test concentration or dose not given here.
Wherever Log2 (fold) (luciferase activity, log2 of the fold difference relative to DMSO controls) is given: test concentration or dose not given here.
Wherever Log2 (fold) of luciferase activity relative to DMSO controls is given: test concentration or dose not given here.

Compound	Log2 (fold) (luciferase activity, log2 of the fold difference relative to DMSO controls) [1]	Fold (luciferase activity, fold difference relative to DMSO controls) [2]	Log2 (fold) of luciferase activity relative to DMSO controls (assessed three days later)	Fold (luciferase activity relative to DMSO controls) [3] [fold]	further results
C/C=C1\[C@H]2C=C(C)C[C@]1(N)c1ccc(=O)[nH]c1C2 [Huperzine A [(−)-Huperzine A]]	−0.641	0.641			
CC1(C2CCCC2)Cc2cc(OCC(=O)O)c(Cl)c(Cl)c2C1=O (centres unmarked) [IAA-94]			0.061	1.043	
CNC(=O)[C@H]1O[C@@H](n2cnc3c(NCc4cccc(I)c4)ncnc32)[C@H](O)[C@@H]1O [IB-MECA]			−0.083	0.944	
CC(C)Cn1c(=O)n(C)c(=O)c2[nH]cnc21 [IBMX]	−0.297	0.814			
O=C1Nc2ccccc2/C1=C1/Nc2ccccc2/C1=N\O [Indirubin-3′-monoxime]			−0.025	0.983	
O=C1Nc2ccccc2/C1=C1/Nc2ccccc2C1=O [Indirubin]			−0.103	0.931	
COC(=O)[C@@]1(O)C[C@H]2O[C@]1(C)n1c3ccccc3c3c4c(c5c6ccccc6n2c5c31)C(=O)NC4 [K252A]			0.364	1.287	
CCCCCCOC(=O)[C@]1(O)C[C@@H]2O[C@@]1(C)n1c3ccccc3c3c4c(c5c6ccccc6n2c5c31)C(=O)NC4 [KT-5720]	−0.246	0.843			
COC(=O)[C@@H](N)CCCNC(=N)N[N+](=O)[O-] [L-NAME]	−0.446	0.734			
CCCCCCCCCCCCCCCC(=O)N[C@@H](COP(=O)(O)O)C(=O)O [L-NASPA]			0.003	1.002	
COc1ccc([C@H]2Sc3ccccc3N(CCN(C)C)C(=O)[C@H]2OC(C)=O)cc1 [L-cis-DILTIAZEM]			0.137	1.100	
CCCCC/C=C\CC1OC1CCCCCCCC(=O)O (centres unmarked) [LEUKOTOXIN A (9,10-EODE)]	−0.216	0.861			
CCCCC/C=C\C[C@@H](O)/C=C/C=C/C=C\[C@@H](O)CCCC(=O)O [LEUKOTRIENE B4]			−0.037	0.975	
CCCCC/C=C\C\C=C/C=C/C=C/[C@@H](SC[C@H](NC(=O)CC[C@H](N)C(=O)O)C(=O)NCC(=O)O)[C@@H](O)CCCC(=O)O [LEUKOTRIENE C4]			0.114	1.082	
CCCCC/C=C\C\C=C/C=C/C=C/[C@@H](SC[C@H](N)C(=O)NCC(=O)O)[C@@H](O)CCCC(=O)O [LEUKOTRIENE D4]			0.234	1.176	
CCCCC/C=C\C\C=C/C=C/C=C/[C@@H](SC[C@H](N)C(=O)O)[C@@H](O)CCCC(=O)O [LEUKOTRIENE E4]	−0.439	0.737			
C/C(O)=C(\C#N)C(=O)Nc1cc(Br)ccc1Br [LFM-A13]	−0.417	0.749			
CCN(CC)CC(=O)Nc1c(C)cccc1C [LIDOCAINE]			0.049	1.035	
CCCCC/C=C\C/C=C\CCCCCCCC(N)=O [LINOLEAMIDE]			−0.027	0.981	
CCCCC/C=C\C/C=C\CCCCCCCC(=O)O [LINOLEIC ACID]			0.024	1.017	
CC/C=C\C/C=C\C/C=C\CCCCCCCC(=O)O [LINOLENIC ACID (18:3 n-3)]			0.096	1.069	
CCCCC[C@H](O)/C=C/C=C\C=C\C=C\[C@@H](O)[C@@H](O)CCCC(=O)O [LIPOXIN A4]			0.046	1.033	
CN(C)C(=O)C(CCN1CCC(O)(c2ccc(Cl)cc2)CC1)(c1ccccc1)c1ccccc1 [LOPERAMIDE]					Fold (luciferase activity, fold difference relative to DMSO controls) (in vivo): 0.786; Log2 (fold) (luciferase activity, log2 of the fold difference relative to DMSO controls) (in vivo): −0.347
CCCCCCCCCCCCCCCCOC[C@@H](O)COP(=O)([O-])OCC[N+](C)(C)C [LYSO-PAF C16]			−0.087	0.941	

Compound	Log2 (fold) (luciferase activity, log2 of the fold difference relative to DMSO controls) [1]	Fold (luciferase activity, fold difference relative to DMSO controls) [2]	Log2 (fold) of luciferase activity relative to DMSO controls (assessed three days later)	Fold (luciferase activity relative to DMSO controls) [3] [fold]	further results
C/C1=C/C(=O)O[C@@H]2C[C@@H](CC[C@H](C)/C=C\CC1)O[C@@](O)([C@@H]1CSC(=O)N1)C2 [Latrunculin B, reference compound]	−1.064	0.478			Fold (Table 3 summary of hits, Screen ICCB, luciferase relative to DMSO, fed three consecutive days in vials): 0.478 fold
O=C(O)c1cc(N(Cc2ccccc2O)Cc2cc(O)ccc2O)ccc1O [Lavendustin A]	−0.297	0.814			
CC(=O)N[C@@H](CC(C)C)C(=O)N[C@@H](CC(C)C)C(=O)N[C@H](C=O)CCCNC(=N)N [Leupeptin]			−0.038	0.974	
CCCCCCCCCCCCCC(=O)N[C@H](C)[C@@H](O)c1ccccc1 [MAPP, D-erythro]	−0.266	0.832			
CCCCCCCCCCCCCC(=O)N[C@@H](C)[C@H](O)c1ccccc1 [MAPP, L-erythro]			0.104	1.075	
Clc1ccc2ncnc(NCc3ccc4c(c3)OCO4)c2c1 [MBCQ]			0.195	1.145	
CC1=NN(c2ccccc2)C(=O)C1 [MCI-186]			−0.200	0.871	
CCCCCCCC/C=C\C/C=C\C/C=C\CCCC(=O)O [MEAD ACID (20:3 n-9)]	−0.279	0.824			
CCCCCCCC/C=C\C/C=C\C/C=C\CCCC(=O)NCCO [MEAD ETHANOLAMIDE]	−0.322	0.800			
COC(C)(C)CCCC(C)C/C=C/C(C)=C/C(=O)O (centres unmarked) [METHOPRENE ACID]	−0.328	0.796			
CC(C)C[C@@H](C=O)NC(=O)[C@H](CC(C)C)NC(=O)[C@H](CC(C)C)NC(=O)OCc1ccccc1 [MG-132] (Cbz-Leu-Leu-Leu-aldehyde)			0.097	1.070	
Nc1cc(N2CCCCC2)nc(N)[n+]1OS(=O)(=O)[O-] [MINOXIDIL SULFATE]	−0.417	0.749			
Nc1cc(N2CCCCC2)nc(N)[n+]1[O-] [MINOXIDIL]	−0.292	0.817			
O=S(=O)(c1cccc2c(I)cccc12)N1CCCNCC1 [ML7]			0.192	1.143	
O=S(=O)(c1cccc2c(Cl)cccc12)N1CCCNCC1 [ML9]	−0.458	0.728			
Clc1cccc(Nc2nnc(-c3ccccc3)c3ccccc23)c1 [MY-5445]			−0.037	0.975	
CC1=C(CC/C(C)=C/CCC2=CC[C@H](C3=CC(=O)O[C@H]3O)O[C@H]2O)C(C)(C)CCC1 [Manoalide]	−0.490	0.712			
CC[C@H](C)C(=O)O[C@H]1C[C@@H](C)C=C2C=C[C@H](C)[C@H](CC[C@@H]3C[C@@H](O)CC(=O)O3)[C@H]21 [Mevinolin (lovastatin)]	−0.512	0.701			
Cc1[nH]c(=O)c(C#N)cc1-c1ccncc1 [Milrinone]	−0.615	0.653			
O=C(O)c1ccc(/C2=C3\C=CC(=N3)/C(c3ccc(C(=O)O)cc3)=c3/cc/c4[n]3[Mn]([Cl])[n]3c2ccc3/C(c2ccc(C(=O)O)cc2)=C2/C=CC(=N2)\C=4c2ccc(C(=O)O)cc2)cc1 [MnTBAP]	−0.245	0.844			
CCOC(=O)C1=C(C)NC(=S)NC1c1cccc(O)c1 (centres unmarked) [Monastrol]	−0.607	0.656			
COc1c(C)c2c(c(O)c1C/C=C(\C)CCC(=O)O)C(=O)OC2 [Mycophenolic acid]	−0.577	0.670			
CC(C)n1cnc2c(NCc3ccccc3)nc(NCCO)nc21 [N9-Isopropylolomoucine]	−0.490	0.712			
